How the values were obtained:
[1] = biological target: cardiac potassium (hERG) channels (Homo sapiens, UniProt Q12809); assay: hERG channel inhibition, Patchliner automated patch clamp; format: cell-based; settings: 6-point curve, maximum 100 μM
Procedure: (§1) (S)-1-((2-(trifluoromethyl)phenyl)sulfonyl)piperidine-3-carboxylic acid was tested for inhibition of cardiac potassium (hERG) channels using the Patchliner automated patch clamp. 6-Point concentration-response curves were generated using half-log serial dilutions from a maximum final test concentration of 100 μM. IC50 values were obtained from a 4-parameter logistic fit of the concentration-response data. […] Reference compound values were consistent with those presented in the literature (Elkins et al., 2013 J. Pharm. Tox. Meth. 68:11-122).

hERG = hERG (Homo sapiens, UniProt Q12809); assay: as above; format: cell-based; settings: human; at 100 μM
Chain of hERG (Q12809 whole entry): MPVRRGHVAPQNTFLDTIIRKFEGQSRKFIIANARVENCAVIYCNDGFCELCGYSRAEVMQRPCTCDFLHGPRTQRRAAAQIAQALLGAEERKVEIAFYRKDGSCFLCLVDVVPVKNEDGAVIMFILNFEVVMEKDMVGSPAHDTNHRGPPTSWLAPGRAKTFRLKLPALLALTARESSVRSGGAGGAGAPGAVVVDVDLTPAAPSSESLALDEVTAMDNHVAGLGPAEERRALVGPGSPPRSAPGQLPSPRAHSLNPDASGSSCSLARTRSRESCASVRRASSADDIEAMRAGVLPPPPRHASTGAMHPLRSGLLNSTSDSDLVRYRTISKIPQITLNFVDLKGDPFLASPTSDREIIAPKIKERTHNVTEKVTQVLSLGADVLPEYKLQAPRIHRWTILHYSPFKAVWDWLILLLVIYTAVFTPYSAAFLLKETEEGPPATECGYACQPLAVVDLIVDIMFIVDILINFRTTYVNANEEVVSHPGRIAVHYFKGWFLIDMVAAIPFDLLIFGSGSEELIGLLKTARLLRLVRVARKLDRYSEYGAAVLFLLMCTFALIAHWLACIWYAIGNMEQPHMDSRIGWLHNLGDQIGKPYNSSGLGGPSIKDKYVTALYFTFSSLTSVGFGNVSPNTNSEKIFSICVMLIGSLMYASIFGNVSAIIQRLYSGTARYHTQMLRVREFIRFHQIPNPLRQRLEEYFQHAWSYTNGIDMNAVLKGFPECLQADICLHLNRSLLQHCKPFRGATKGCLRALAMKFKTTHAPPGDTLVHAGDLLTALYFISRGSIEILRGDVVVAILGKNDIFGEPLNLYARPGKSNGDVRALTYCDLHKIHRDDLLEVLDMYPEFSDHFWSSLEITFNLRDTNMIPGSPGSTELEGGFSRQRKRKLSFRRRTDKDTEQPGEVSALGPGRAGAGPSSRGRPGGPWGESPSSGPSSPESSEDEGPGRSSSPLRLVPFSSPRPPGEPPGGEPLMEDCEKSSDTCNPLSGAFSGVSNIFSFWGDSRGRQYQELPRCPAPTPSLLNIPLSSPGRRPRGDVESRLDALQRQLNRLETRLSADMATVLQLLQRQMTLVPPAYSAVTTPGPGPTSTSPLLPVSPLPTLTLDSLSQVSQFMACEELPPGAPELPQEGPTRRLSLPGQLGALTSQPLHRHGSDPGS
Procedure: as §1

human Z A1AT = human Z A1AT (Homo sapiens, UniProt P01009, E366K); assay: Circulating human Z A1AT levels in huZ mice; format: in vivo, mouse; set-up: from tissue; host or cells: huZ transgenic mice (line Z11.03, C57Bl/6); expressed in liver, measured in plasma; settings: huZ mice, 5, 15 or 50 mg/kg twice a day by oral gavage for 14 days, plasma days 12-14
Chain of human Z A1AT (P01009 25-418 E366K): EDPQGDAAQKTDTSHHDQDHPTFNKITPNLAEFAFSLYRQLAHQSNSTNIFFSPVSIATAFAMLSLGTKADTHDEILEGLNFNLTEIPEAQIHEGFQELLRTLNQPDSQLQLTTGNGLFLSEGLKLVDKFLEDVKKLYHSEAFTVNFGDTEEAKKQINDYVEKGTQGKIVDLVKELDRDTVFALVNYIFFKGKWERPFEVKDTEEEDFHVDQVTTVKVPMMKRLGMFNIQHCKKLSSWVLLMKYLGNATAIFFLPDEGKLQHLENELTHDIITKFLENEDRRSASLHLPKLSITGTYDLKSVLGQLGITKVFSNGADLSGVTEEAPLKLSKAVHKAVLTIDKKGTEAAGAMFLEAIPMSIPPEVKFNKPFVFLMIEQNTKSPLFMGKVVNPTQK
Source text: The huZ mouse (also referred to as the PiZZ mouse) is a transgenic mouse strain that contains multiple copies of the Z variant of the human A1AT gene, developed by two separate groups (Dycaico et al (Science (1988) 242:1409-12) and Carlson et al (J. Clin Invest (1989) 83:1183-90)). HuZ mice are on a C57Bl/6 background and express the human Z A1AT protein in liver tissue. The mice used in this study are from the progeny of Carlson and colleagues (transgenic line Z11.03). […]
HuZ mice (n=4/group: male or female) with basal human A1AT plasma levels of between 200-600 μg/ml were treated with either vehicle or (S)-1-((2-(trifluoromethyl)phenyl)sulfonyl)piperidine-3-carboxylic acid at 5, 15 or 50 mg/kg twice a day by oral gavage for 14 consecutive days. […] Human A1AT levels in mouse plasma samples were measured by ELISA (Human Serpin A1/α1 antitrypsin duo set ELISA, R& D Systems, DY1268) per manufacturer's instructions.
Briefly, a 96 well plate was coated with human A1AT capture antibody overnight at room temperature (1:180 dilution from stock, 100 μl final volume/well). […] After which, 50 μl stop solution (2M H2SO4) was added and optical density (OD) of each well was read at 450 nm with 570 nm blank subtracted from each well using a microplate reader. […]

Chain of cardiac potassium (hERG) channels (Q12809 whole entry): as the sequence (Q12809 whole entry) above

For `O=C(O)[C@H]1CCCN(S(=O)(=O)c2ccccc2C(F)(F)F)C1` [(S)-1-((2-(Trifluoromethyl)phenyl)sulfonyl)piperidine-3-carboxylic acid], the IC50 [1] was greater than 100 µM, the inhibition at 100 µM (hERG) was 7% and the “circulating human Z A1AT compared to baseline levels” value (human Z A1AT) was “stimulates secretion of human Z A1AT compared to baseline levels in huZ mice in a dose dependent manner”.

Source: patent US12673050B2, “Compositions and their use for the treatment of A1-antitrypsin deficiency” (Centessa Pharmaceuticals (UK) Limited, priority 2021, dated 2026)
